Test results published in patent US10662164B2, “Non-beta lactam antibiotics” (University of Notre Dame du Lac, priority 2014, dated 2020).
≈ marks a conversion by molar mass, not a printed value. Read-outs that look alike come from different tables or passages of the source.

Legend:
S. aureus ATCC 27660 [1] = test: Mouse peritonitis model of infection; type: in vivo; conditions: for Mouse peritonitis (survived/total): iv at 20 mg/kg at 30 min and 7.5 h after infection, survival at 48 h
Method: Compounds 60b, 60c, 65b, 66b, 75b and 76b were evaluated in the mouse peritonitis model of infection (Table 2). We used the ICR out-bred strain of mice that provides a heterogeneous population, similar to the human situation, thus, ensuring the relevance of the antibacterial effect. This animal model of infection is widely used, it is easy to carry out, and the end points (death or survival) are rapidly assessed, making it less resource-intensive compared to other infection models. In addition, excellent correlation between MIC and ED50 has been shown for 14 β-lactam antibiotics using this model (Kratochwil et al., Biochem. Pharmacol. 2002, 64, 1355). The mouse peritonitis infection model continues to be an important model for evaluation of the efficacy of antibiotics against human pathogens. We use the iv route of administration in initial efficacy studies, as this allows us to test the efficacy without knowledge of the oral bioavailability of the lead. Evaluation was done at 20 mg/kg.
Female ICR mice (6-8 weeks old, ˜20-g body weight) were used for the PK and peritonitis studies. Animals were purchased from Harlan Laboratories, Inc. (Indianapolis, Ind., USA) and given Teklad 2019 Extruded Rodent Diet and water ad libitum. Mice were maintained in polycarbonate shoebox cages with ¼″ corncob (The Andersons Inc., Maumee, Ohio) and Alpha-dri (Sheperd Specialty Papers, Inc., Richland, Mich.) bedding under 12-h light/12-h dark cycle at 72±2° F.
The mouse peritonitis model was used with S. aureus ATCC 27660, as described previously (Tran et al., Am. J. Clin. Dermatol. 2015; doi 10.1007/S40257-015-0125-9). The final bacterial inocula contained 5×10^7 cfu/mL and 5% mucin (Sigma-Aldrich Chemical Co., St Louis, Mo., USA). Just prior to inoculation, bacteria at 10^8 cfu/mL were mixed 1:1 with 10% mucin. Mice (n=6 per group) were given 0.5 mL of the bacterial inocula intraperitoneally. Mice were given two iv doses of the compounds at 30 min and 7.5 h after infection by tail vein injection. […] Mice were monitored for 48 h, at which time the number of surviving mice were counted.
The effective dose that results in survival of 50% of the mice was determined using Probit analysis (XLSTAT, New York, N.Y.). Groups of six mice per dose level were evaluated in the mouse peritonitis infection model at iv doses of 2.5, 5, 7.5, 10, 15, and 20 mg/kg and after po doses at 2.5, 5, 10, 20, and 40 mg/kg. […]

E. faecium NCTC 7171 [2] = test: MIC determination; type: cell-based, Enterococcus faecium; conditions: Enterococcus faecium
S. oralis ATCC 9811 = test: MIC determination; type: cell-based; conditions: Streptococcus oralis, ATCC9811
Summary of the method: (§1)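 MIC determined by a previously reported procedure against ATCC reference strains and resistant clinical isolates, including vancomycin-resistant E. faecium 106 and S. aureus VRS1.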

S. aureus NRS119 = test: MIC determination; type: cell-based; conditions: Staphylococcus aureus
E. faecalis 99 (Van R) = test: MIC determination; type: cell-based; conditions: Enterococcus faecalis; vancomycin-resistant clinical isolate; Tables 1 and 5
S. pyogenes ATCC 49399 = test: MIC determination; type: cell-based; conditions: Streptococcus pyogenes, ATCC49399
Summary of the method: as §1

E. faecalis 201 (Van S) = test: MIC determination; type: cell-based; conditions: Enterococcus faecalis
[3] = tested on: E. faecium 119-39A (Van S); test: MIC determination; type: cell-based; conditions: Enterococcus faecium
Summary of the method: as §1

S. aureus NRS120 = test: MIC determination; type: cell-based; conditions: Staphylococcus aureus
S. aureus VRS1 = test: MIC determination; type: cell-based; conditions: Staphylococcus aureus
E. faecalis ATCC 29212 = test: MIC determination; type: cell-based; conditions: Enterococcus faecalis, ATCC29212
E. faecium 106 (Van R) = test: MIC determination; type: cell-based; conditions: Enterococcus faecium; vancomycin-resistant clinical isolate; Tables 1 and 5; read-out: MIC
Summary of the method: as §1

[4] = tested on: B. licheniformis ATCC 12759; test: MIC determination; type: cell-based; conditions: Bacillus licheniformis, ATCC12759
B. cereus ATCC 13061 = test: MIC determination; type: cell-based; conditions: Bacillus cereus, ATCC13061
S. aureus VRS2 = test: MIC determination; type: cell-based; conditions: Staphylococcus aureus
S. aureus ATCC 27660 [5] = test: MIC determination; type: cell-based; conditions: Staphylococcus aureus, ATCC27660
E. faecium NCTC 7171 [6] = test: Minimal-bactericidal concentration (MBC) determination; type: cell-based, Enterococcus faecium
Method: The MBC of compound 75b was determined using S. aureus ATCC 29213, S. aureus […], and E. faecium NCTC 7171.
The MBC of indolyl antibiotic 75b was determined by incubation of 1.5×10^5 cells of S. aureus ATCC29213, S. aureus ATCC 27660, and E. faecium NCTC7171 at MIC, 2×MIC, and 4×MIC. Aliquots of 10 μL (corresponding to 1.5×10^4 cells) were plated on agar plates, incubated for 48 h, and colonies were counted in the presence and absence of […].

[7] = NCTC7171, Table 1, read-out: MIC
[8] = NCTC7171, Table 3.1, compounds of Schemes 2-4, read-out: E. faecium NCTC 7171 MIC
[9] = mecA positive, linezolid-resistant, Tables 1 and 5, read-out: MIC
[10] = vancomycin-susceptible clinical isolate, Tables 1 and 5, read-out: MIC
[11] = vancomycin-resistant MRSA (vanA) isolate from Michigan, Tables 1 and 5, read-out: MIC
[12] = quality-control strain, Tables 1 and 5, read-out: MIC
[13] = Staphylococcus aureus, ATCC27660, iv, 2 doses given at 30 min and 7.5 h after infection, read-out: ED50
[14] = Staphylococcus aureus, ATCC27660, po, single dose given at 1 h after infection, read-out: ED50
[15] = vancomycin-resistant MRSA (vanA) isolate from Pennsylvania, Tables 1 and 5, read-out: MIC
[16] = mecA positive, resistant to methicillin, oxacillin, tetracycline, Tables 1 and 5, read-out: MIC

SMILES | Mouse peritonitis (survived/total) (S. aureus ATCC 27660 [1]) | MIC (E. faecium NCTC 7171 [2]; [7]) [µg/mL] | MIC (E. faecium NCTC 7171 [2]; [8]) [µg/mL] | MIC (S. oralis ATCC 9811; Table 1, read-out: MIC) [µg/mL] | MIC (S. aureus NRS119; [9]) [µg/mL] | MIC (E. faecalis 99 (Van R)) [µg/mL] | MIC (S. pyogenes ATCC 49399; Table 1, read-out: MIC) [µg/mL] | MIC (E. faecalis 201 (Van S); [10]) [µg/mL] | MIC [3, 10] [µg/mL] | MIC (S. aureus NRS120; [9]) [µg/mL] | MIC (S. aureus VRS1; [11]) [µg/mL] | MIC (E. faecalis ATCC 29212; [12]) [µg/mL] | MIC (E. faecium 106 (Van R)) [µg/mL] | MIC ([4]; Tables 1 and 5, read-out: MIC) [µg/mL] | MIC (B. cereus ATCC 13061; Tables 1 and 5, read-out: MIC) [µg/mL] | MIC (S. aureus VRS2; [15]) [µg/mL] | MIC (S. aureus ATCC 27660 [5]; [16]) [µg/mL] | also measured
Fc1ccc(Oc2ccc(-c3noc(-c4n[nH]cc4Cl)n3)cc2)cc1 [Compound 60c, 5-(4-Chloro-1H-pyrazol-3-yl)-3-(4-(4-fluorophenoxy)phenyl)-1,2,4-oxadiazole] | 2/6 | 32 (≈ 89.7 µM) | 8 (≈ 22.4 µM) | > 128 | 2 (≈ 5.61 µM) | > 128 | > 128 | > 128 | > 128 | 64 (≈ 179 µM) | 1 (≈ 2.8 µM) | > 128 | > 128 | > 128 | > 128 | – | – | –
FC(F)(F)c1ccc(Oc2ccc(-c3noc(-c4c[nH]cn4)n3)cc2)cc1 [Compound 76b, 5-(1H-Imidazol-4-yl)-3-(4-(4-(trifluoromethyl)phenoxy)phenyl)-1,2,4-oxadiazole] | 3/6 | 8 to 16 (≈ 21.5 to 43 µM) | 4 (≈ 10.7 µM) | > 128 | – | – | 128 (≈ 344 µM) | – | – | – | 1 (≈ 2.69 µM) | – | – | – | – | – | – | –
Oc1ccc(-c2nc(-c3ccc(Oc4ccc(C(F)(F)F)cc4)cc3)no2)cc1 [Compound 1] | – | 2 (≈ 5.02 µM) | 1 (≈ 2.51 µM) | 32 (≈ 80.3 µM) | 2 (≈ 5.02 µM) | 2 (≈ 5.02 µM) | 32 (≈ 80.3 µM) | 2 (≈ 5.02 µM) | 1 (≈ 2.51 µM) | 2 (≈ 5.02 µM) | 2 (≈ 5.02 µM) | 2 (≈ 5.02 µM) | 2 (≈ 5.02 µM) | 2 (≈ 5.02 µM) | 2 (≈ 5.02 µM) | 2 (≈ 5.02 µM) | 2 (≈ 5.02 µM) | ED50 (S. aureus ATCC 27660 [1]; [13]): 40 mg/kg; ED50 (S. aureus ATCC 27660 [1]; [14]): 44 mg/kg
C#Cc1c[nH]nc1-c1nc(-c2ccc(Oc3ccc(C(F)(F)F)cc3)cc2)no1 [Compound 66b, 5-(4-Ethynyl-1H-pyrazol-3-yl)-3-(4-(4-(trifluoromethyl)phenoxy)phenyl)-1,2,4-oxadiazole] | 2/6 | – | > 128 | > 128 | 32 (≈ 80.7 µM) | > 128 | > 128 | > 128 | – | > 128 | 1 (≈ 2.52 µM) | > 128 | – | > 128 | > 128 | 0.5 (≈ 1.26 µM) | 0.5 (≈ 1.26 µM) | –
FC(F)(F)c1ccc(Oc2ccc(-c3noc(-c4ccc5[nH]ccc5c4)n3)cc2)cc1 [Compound 75b, 5-(1H-Indol-5-yl)-3-(4-(4-(trifluoromethyl)phenoxy)phenyl)-1,2,4-oxadiazole] | 5/6 | 2 to 4 (≈ 4.75 to 9.49 µM) | 2 (≈ 4.75 µM) | 128 (≈ 304 µM) | – | 16 (≈ 38 µM) | 64 (≈ 152 µM) | – | – | – | 1 (≈ 2.37 µM) | – | – | – | 16 (≈ 38 µM) | – | – | ED50 (S. aureus ATCC 27660 [1]; [13]): 7.6 mg/kg; ED50 (S. aureus ATCC 27660 [1]; Staphylococcus aureus, ATCC27660, po, 2 doses given at 30 min and 7.5 h after infection, read-out: ED50): 1.7 mg/kg; ED50 (S. aureus ATCC 27660 [1]; [14]): 3.1 mg/kg; ED50 (S. aureus ATCC 27660 [1]; iv, 2 doses given at 30 min and 7.5 h after infection): 7.6 mg/kg; ED50 (S. aureus ATCC 27660 [1]; po, 2 doses given at 30 min and 7.5 h after infection): 1.7 mg/kg; ED50 (S. aureus ATCC 27660 [1]; po, single dose given at 1 h after infection): 3.1 mg/kg; ED50, fold better than that of 1 (S. aureus ATCC 27660 [1]; single po dose given at 1 h after infection): 14 fold; MBC, fold above the MIC (E. faecium NCTC 7171 [6]): 2 fold
CC(C)Nc1c[nH]nc1-c1nc(-c2ccc(Oc3ccc(C(F)(F)F)cc3)cc2)no1 [Compound 65b, N-Isopropyl-3-(3-(4-(4-(trifluoromethyl)phenoxy)phenyl)-1,2,4-oxadiazol-5-yl)-1H-pyrazol-4-amine] | 1/6 | – | – | – | – | – | – | – | – | – | – | – | – | – | – | – | – | MIC (E. faecium NCTC 7171 [2]; NCTC7171): 32 µg/mL (≈ 74.5 µM); MIC (E. faecium NCTC 7171 [2]; NCTC7171, read-out: E. faecium NCTC 7171 MIC): > 128 µg/mL; MIC (S. oralis ATCC 9811): > 128 µg/mL; MIC (S. aureus NRS119): 2 µg/mL (≈ 4.66 µM); MIC (S. pyogenes ATCC 49399): > 128 µg/mL; MIC (E. faecalis 201 (Van S)): > 128 µg/mL; MIC [3]: > 128 µg/mL; MIC (S. aureus NRS120): > 128 µg/mL; MIC (S. aureus VRS1; MRSA): 1 µg/mL (≈ 2.33 µM); MIC (S. aureus VRS2; MRSA): 4 µg/mL (≈ 9.32 µM); MIC (E. faecalis ATCC 29212): > 128 µg/mL; MIC (S. aureus ATCC 27660 [5]): 0.5 µg/mL (≈ 1.16 µM); MIC [4]: > 128 µg/mL; MIC (B. cereus ATCC 13061): > 128 µg/mL
FC(F)(F)c1ccc(Oc2ccc(-c3noc(-c4n[nH]cc4Cl)n3)cc2)cc1 [Compound 60b, 5-(4-Chloro-1H-pyrazol-3-yl)-3-(4-(4-(trifluoromethyl)phenoxy)phenyl)-1,2,4-oxadiazole] | 4/6 | 16 (≈ 39.3 µM) | 2 (≈ 4.92 µM) | > 128 | – | > 128 | > 128 | > 128 | > 128 | 64 (≈ 157 µM) | 1 to 2 (≈ 2.46 to 4.92 µM) | > 128 | > 128 | > 128 | > 128 | 0.5 to 1 (≈ 1.23 to 2.46 µM) | 2 (≈ 4.92 µM) | –
